The term GI50 denotes the concentration at which growth is held to half of that of the control.

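A five-concentration, 48-hour dose response in 96-well plates underlies each endpoint, interpolated linearly between surrounding concentrations. At the GI50, growth is halved.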 The source made the active and inactive calls. Rule as the data show it: active = GI50 up to about 1.1 µM and inactive = higher.

The values that follow come from ChEMBL document CHEMBL1201862, “PubChem BioAssay data set” (2004).

Among the test systems are A498; A549; OVCAR-8; SW-620; BT-549; SK-MEL-5; KM12; U-251; SK-MEL-2; HCC 2998; MDA-MB-231; MDA-N; NCI-H460; UACC-257; IGROV-1; HCT-116; MDA-MB-435; EKVX; SF-268.
Holding throughout (experiment): DTP human tumour cell line panel, 48 h

For the compound `CN(C)[C@H]1CC[C@H]2[C@@H]3CCC4C[C@@H](NC(=O)NC(Cc5ccccc5)c5nccs5)CC[C@]4(C)[C@H]3CC[C@]12C` (stereo not given in full), the GI50 in the test on A498 is 1.69 µM (inactive); in the test with A549, 1.58 µM (inactive); in the test with OVCAR-8, 0.667 µM (active); with SW-620, 0.687 µM (active); with BT-549, 1.79 µM (inactive); with SK-MEL-5 it was 0.789 µM (active). Besides, the GI50 in the test with KM12 is 1.12 µM (inactive); in the test on U-251, 0.698 µM (active); in the test on SK-MEL-2 it was 1.1 µM (active); in the test with HCC 2998, 1.75 µM (inactive); with MDA-MB-231 it was 0.377 µM (active); with MDA-N it was 0.35 µM (active). The concentration for 50% growth inhibition (GI50) with NCI-H460 was 1.06 µM (active); in the test with UACC-257 it was 1.87 µM (inactive); in the test with IGROV-1, 1.87 µM (inactive); in the test with HCT-116 it was 0.955 µM (active); with MDA-MB-435, 0.51 µM (active); in the test with EKVX, 1.96 µM (inactive). In the test with SF-268, the GI50 was 1.66 µM (inactive).

Regarding `Cn1c2c(c3ccccc31)CC(=O)N1CCCCC1C21OCCO1` (stereo not given), the GI50 in the test on A498, with A549, in the test with OVCAR-8, in the test on SW-620, in the test with BT-549 and with SK-MEL-5 was > 100 µM (inactive) each time. The GI50 with KM12, in the test on U-251, in the test on SK-MEL-2, in the test on HCC 2998, in the test with MDA-MB-231 and in the test on MDA-N was > 100 µM (inactive) throughout. Also, the GI50 in the test with NCI-H460, in the test with UACC-257, with IGROV-1, in the test with HCT-116, in the test on MDA-MB-435 and in the test on EKVX was > 100 µM (inactive) each time. In addition, the GI50 in the test on SF-268 was > 100 µM (inactive).

As to `COc1ccccc1/C(=N\OCCC(=O)O)c1cccs1`, the GI50 in the test with A498, in the test on A549, in the test with OVCAR-8, in the test with SW-620, with BT-549 and in the test on SK-MEL-5 was > 100 µM (inactive) throughout. Besides, the GI50 with KM12, in the test on U-251, with SK-MEL-2, in the test on HCC 2998, with MDA-MB-231 and in the test with MDA-N was > 100 µM (inactive) each time. Moreover, the GI50 in the test with NCI-H460, with UACC-257, in the test with HCT-116, in the test with MDA-MB-435, in the test with EKVX and with SF-268 was > 100 µM (inactive) each time.

On to `CC(=O)NC1C(CO)O[C@@H]2OC(C)(C)O[C@H]12` (stereo not given in full), for which the GI50 with A498, in the test with A549, in the test with OVCAR-8, with SW-620, in the test with BT-549 and with KM12 was > 100 µM (inactive) each time. Also, the GI50 in the test on U-251, in the test with SK-MEL-2, in the test on HCC 2998, with MDA-MB-231, with MDA-N and in the test on NCI-H460 was > 100 µM (inactive) throughout. The GI50 in the test on UACC-257, with IGROV-1, in the test with HCT-116, in the test on MDA-MB-435, with EKVX and in the test on SF-268 was > 100 µM (inactive) each time.

As to `CC(C)(C)OC/C=C(\Br)CO`, the GI50 is > 100 µM (inactive) in the test on A498; > 100 µM (inactive) with A549; > 100 µM (inactive) in the test with OVCAR-8; > 100 µM (inactive) with SW-620; > 100 µM (inactive) with BT-549; 41.6 µM (inactive) in the test with KM12. Moreover, the GI50 in the test on U-251, with SK-MEL-2, in the test with HCC 2998, in the test on MDA-MB-231, in the test on MDA-N and with NCI-H460 was > 100 µM (inactive) in each case. Moreover, the GI50 with UACC-257, in the test with HCT-116, in the test on MDA-MB-435, with EKVX and with SF-268 was > 100 µM (inactive) in each case.

Turning to `CCOC(=O)c1cc(NC(=O)N(CCC#N)CCN(C(=O)N[C@@H](Cc2ccccc2)C(=O)N[C@@H](CC(C)C)C(=O)NC)c2ccccc2)ccc1OC`, the GI50 is 63.7 µM (inactive) in the test with A498; > 100 µM (inactive) in the test on A549; 84.9 µM (inactive) with OVCAR-8; > 10 µM (inactive) in the test with SW-620; 30.9 µM (inactive) in the test with BT-549; 42.3 µM (inactive) in the test with SK-MEL-5. The GI50 with KM12 was > 100 µM (inactive); in the test with U-251, > 10 µM (inactive); with SK-MEL-2, 38.2 µM (inactive); in the test with HCC 2998 it was 35.1 µM (inactive); in the test on MDA-MB-231 it was 74.5 µM (inactive); in the test on MDA-N it was 57.1 µM (inactive). Moreover, the GI50 in the test on UACC-257 is 24 µM (inactive); in the test with IGROV-1 it was 41.8 µM (inactive); in the test with HCT-116 it was 42.4 µM (inactive); in the test with MDA-MB-435, 30.9 µM (inactive); with EKVX it was 63.1 µM (inactive); in the test on SF-268, 48.5 µM (inactive).

Regarding `CC(=O)/N=C1/N(/C=C2\C(=O)Oc3ccccc3C2=O)C(=O)/C(=C/c2cccc(Cl)c2Cl)N1C`, the GI50 was 4.68 µM (inactive) in the test on A498; 28.2 µM (inactive) with A549; 19.7 µM (inactive) in the test on OVCAR-8; 29.9 µM (inactive) with SW-620; 20.4 µM (inactive) in the test on BT-549; 12.9 µM (inactive) with SK-MEL-5. Also, the GI50 is 26.7 µM (inactive) in the test on KM12; 23.1 µM (inactive) with U-251; 19.8 µM (inactive) in the test on SK-MEL-2; 16.7 µM (inactive) in the test with HCC 2998; 29.9 µM (inactive) in the test on MDA-MB-231; 42.8 µM (inactive) in the test with MDA-N. Further, the GI50 with UACC-257 is 39 µM (inactive); with IGROV-1, 21.4 µM (inactive); in the test with HCT-116, 29.4 µM (inactive); in the test on MDA-MB-435, 25.6 µM (inactive); in the test on EKVX, 28.9 µM (inactive); with SF-268, 20.4 µM (inactive).

As for `CN(C)CCNc1ccc2ncnc3c2c1C(=O)c1ccccc1-3`, the GI50 in the test on A498 was 1.64 µM (inactive); in the test on A549, 0.274 µM (active); in the test on OVCAR-8 it was 0.466 µM (active); in the test on SW-620, 0.129 µM (active); in the test on BT-549, 5.32 µM (inactive); with SK-MEL-5, 0.759 µM (active). Further, the concentration for 50% growth inhibition (GI50) in the test with KM12 is 0.393 µM (active); with U-251 it was 0.49 µM (active); in the test with SK-MEL-2 it was 1.76 µM (inactive); in the test on HCC 2998 it was 0.348 µM (active); in the test with MDA-MB-231, 0.337 µM (active); with MDA-N it was 0.456 µM (active). The GI50 in the test on NCI-H460 was 0.443 µM (active); in the test with UACC-257, 2.09 µM (inactive); with HCT-116 it was 0.0676 µM (active); with MDA-MB-435 it was 0.535 µM (active); in the test on EKVX, 0.343 µM (active); with SF-268 it was 0.513 µM (active).
